Series [1] concerns N. meninigitidis (LNP24198) expressing luciferase (LuxABCDE). Nature of the series: N. meningitidis luminescent strain growth assay (16 h). It counts as cell-based, Neisseria meningitidis. Particulars: for MIC: 16 h. Here is the method:
N. meningitidis Luminescent Strain Growth Assay (16 h)
To perform the library screening (FIG. 1) or to compare the activity of the different boron-containing salts (FIG. 3), the amount of light produced after 16 h of growth for N. meningitidis luminescent strain was measured. Contrarily to optical density (OD) readings which can be misleading due to the absorbance of dead cells, this measurement is directly correlated to the number of live cells, as the half-life of the luciferase and its substrate are limited and that the emission of light is therefore not subsisting after the death of the cells. To perform this assay, N. meninigitidis (LNP24198) expressing luciferase (LuxABCDE) was grown overnight under the control of the constitutive promoter porBp in GCB agar media, and a cell-suspension corresponding to an OD600=0.01 was subsequently prepared. In parallel, fresh stock DMSO solutions of the compounds were prepared (100×, with final concentrations being indicated in the different figures) and 1.8 μL of the corresponding solutions were added per well of 96-well plates. In each well, 178.2 μL of bacterial suspension were subsequently added. Bacteria were allowed to grow during 16 h at 37° C. with 5% CO2. The emitted light was measured using a 96-well plate luminometer (PerkinElmer Wallac 1420 Victor^3) and results are expressed in relative light unit (RLU). All these assays were performed at least in triplicates.
To screen molecules for their antibacterial activity, a luminescent system was used, as previously described for other bacteria. A clinical isolate of N. meninigitidis (LNP24198) expressing luciferase (LuxABCDE) under the control of the constitutive promoter porBp was used, as similarly described, located in the intergenic region next to NMB1732. More than 2400 compounds from different origins were screened to identify candidates with the ability to inhibit the growth of N. meningitidis after 16 h at 37° C. […] It is noteworthy that stock solutions for all tested compounds were prepared in DMSO and that the final DMSO concentration of the tested solutions was kept at 1%, a concentration which has proven not to affect the growth of N. meningitidis (FIG. 1A). […] An investigation of the effect of the BPh4^− moiety was then pursued.
To exclude any salt-specific effect, the effect of several BPh4^− and BF4^− salts on the growth of N. meningitidis luminescent strain was tested. The growth of N. meningitidis was measured after a 16 h-exposure to different concentrations of various BPh4^− and BF4^− salts. From this assay, the MIC (minimum inhibitory concentration, the lowest concentration that prevents visible bacterial growth, <800 RLU) was calculated. All BPh4 salts tested (sodium, ammonium and potassium) were all highly toxic for N. meningitidis.
Several borate compounds were prepared and their ability to inhibit N. meningitidis growth was assessed using the luminescent system described at Example 2.

A short description of series [2]: Partition coefficient (Log P), shaking flask method (HPLC-UV). It counts as physicochemical. Particulars: octanol/water. An excerpt:
As well-known to the skilled person, when expressing lipophilicity as log P, P is the partition coefficient; that is the ratio of the concentrations of the compound between a hydrophobic phase and a hydrophilic phase (forming a biphasic liquid mixture), generally water and octanol.
The measurement of log P is well described in the literature—see e.g. Román, I. P.; Mastromichali, A.; Tyrovola, K.; Canals, A.; Psillakis, E. Rapid Determination of Octanol-Water Partition Coefficient Using Vortex-Assisted Liquid-Liquid Microextraction. J. Chromatogr. A 2014, 1330, 1-5; and Yiantzi, E.; Psillakis, E.; Tyrovola, K.; Kalogerakis, N. Vortex-Assisted Liquid-Liquid Microextraction of Octylphenol, Nonylphenol and Bisphenol-A. Talanta 2010, 80 (5), 2057-2062, both of which are incorporated herein by reference.
Partition coefficients (Log P) were determined using the shaking flask method (HPLC-UV)—see Román, I. P.; Mastromichali, A.; Tyrovola, K.; Canals, A.; Psillakis, E. Rapid Determination of Octanol-Water Partition Coefficient Using Vortex-Assisted Liquid-Liquid Microextraction. J. Chromatogr. A 2014, 1330, 1-5; and Yiantzi, E.; Psillakis, E.; Tyrovola, K.; Kalogerakis, N. Vortex-Assisted Liquid-Liquid Microextraction of Octylphenol, Nonylphenol and Bisphenol-A. Talanta 2010, 80 (5), 2057-2062, both of which are incorporated herein by reference.

For series [3], the system named is N. gonorrhoeae (LNP16626). In words: Bacterial survival assay (3 h), CFU counts. It counts as cell-based, Neisseria gonorrhoeae. The note with it: 50 μM, 3 h, CFU counts. Here is the method: (§1) Bacterial Survival Assay (3 h)
(§2) To measure bacterial survival (FIGS. 2 and 4), different bacteria were exposed to various concentrations of the compounds (as indicated) in their specific growth media (see the culture conditions above) for 3 h at 37° C. To perform this assay, all strains were grown overnight in their corresponding agar media. Cell-suspension corresponding to an OD600=0.05 were subsequently prepared. In parallel, fresh stock DMSO solutions of the compounds were prepared (100×, with final concentrations being indicated in the different figures) and 1.8 μL of the corresponding solutions were added per well of 96-well plates. In each well, 178.2 μL of bacterial suspension were subsequently added. Bacteria were allowed to grow during […] at 37° C. with 5% CO2. After incubation, serial dilutions (until 10^−6) were performed and 50 μL of each diluted solution were spread on agar plates. After an overnight incubation at 37° C. with/without 5% CO2, CFU were enumerated. All these assays were performed at least in triplicates.
(§3) Therefore, the bactericidal activity was assessed for the 4 compounds harboring a BPh4^− identified from the initial screen described above (AnIII-7, AnIII-6, AnII-18, NaBPh4). N. meningitidis was treated with 50 μM of each compound and the % survival cells (compared with DMSO 1% control) was measured using serial dilutions and CFU counts. […] To verify if the bactericidal effect could be observed for the other pathogen of the Neisseria family, a clinical isolate of. N. gonorrhoeae (LNP16626 [3]) was also treated with 50 μM of the same compounds, respectively, using the same assay.
(§4) The MBC (minimum bactericidal concentration that kill >99.999%), the concentration necessary to completely abrogate bacterial survival after a 3 h exposure to NaBPh4, was next assessed.

Another series deals with N. meningitidis. Nature of the series: Bacterial survival assay (3 h), CFU counts. It counts as cell-based, Neisseria meningitidis. The note with it: 50 μM, 3 h, CFU counts vs DMSO 1% control. The protocol:
as §1, §2, §3, §4

Where [4] appears, read: minimum inhibitory concentration, N. meningitidis growth, luminescent system (<800 RLU).

≈ marks a conversion by molar mass, not a printed value.

Turning to `c1ccc(B(c2ccccc2)c2ccccc2)cc1` [BPh3, triphenylborane, reference compound], in series [1] (16 h-exposure, different concentrations), the “toxicity / effect on growth of N. meningitidis luminescent strain (FIG. 3)” value was “No observable toxicity”.

`Cc1ccc([B-](c2ccc(C)cc2)(c2ccc(C)cc2)c2ccc(C)cc2)cc1.[Na+]` [Compound 15, sodium tetrakis(tolyl)borate]: the MIC result in series [1] (setting [4]) is reported as “Active but MIC not determined because of abnormal background signal”. The same measure, in the same setting: the value for “Sodium tetrafluoroborate [Compound 4, reference compound]” was greater than 250 µM. As to `Cc1ccc([B-](c2ccccc2)(c2ccc(C)cc2)c2ccc(C)cc2)cc1.[Na+]` [Compound 14, Sodium tris(4-methylphenyl)(phenyl)borate], in series [1] (setting [4]), the minimal inhibitory concentration (MIC) is 5 µM. Besides, in series [2], the log partition coefficient (Log P) was found to be 2.5±0.2. `c1ccc([B-]2(c3ccccc3)[NH2+]CCO2)cc1` [Compound 22] yielded an MIC in series [1] (Neisseria meningitidis) of 75 µM (≈ 16.9 µg/mL).

`C[B-](c1ccccc1)(c1ccccc1)c1ccccc1` [Compound 5, Sodium methyltriphenylborate] came in with a minimal inhibitory concentration (MIC) in series [1] (Neisseria meningitidis) of 25 µM. In addition, the log partition coefficient (logP) in series [2] was -0.96 ± 0.1. In series [1] (setting [4]), “Potassium difluorodiphenylborate [Compound 3]” showed an MIC of 37.5 µM. In turn, `Cc1ccc([B-](c2ccccc2)(c2ccccc2)c2ccccc2)cc1.[Na+]` [Compound 12, Sodium tolyltriphenylborate] came in with a minimum inhibitory concentration (MIC) in series [1] (setting [4]) of 25 µM. The “Log P” value in series [2] is 0.41±0.02. In series [1] (Neisseria meningitidis), `CCC[B-](c1ccccc1)(c1ccccc1)c1ccccc1` [Compound 7, Sodium n-propyltriphenylborate] showed a minimal inhibitory concentration (MIC) of 5 µM. Also, in series [2], the logP came to 0.8 ± 0.2. In series [1] (Neisseria meningitidis), `CCCCCC[B-](c1ccccc1)(c1ccccc1)c1ccccc1` [Compound 9, Sodium hexyltriphenylborate] returned an MIC of 1 µM. The compound also had a logP in series [2] of 2.83 ± 0.02. The corresponding values for `CC[B-](c1ccccc1)(c1ccccc1)c1ccccc1` [Compound 6, Sodium ethyltriphenylborate] are 25 µM and 0. `Fc1ccc([B-](c2ccc(F)cc2)(c2ccc(F)cc2)c2ccc(F)cc2)cc1` [Compound 16, sodium tetrakis(4-fluorophenyl)borate]: in series [1] (Neisseria meningitidis), the lowest concentration to inhibit growth (MIC) was 2.5 µM. `CCCCCCC[B-](c1ccccc1)(c1ccccc1)c1ccccc1` [Compound 10, Sodium heptyltriphenylborate] showed an MIC in series [1] (Neisseria meningitidis) of 1 µM. In series [2], this compound yielded a logP of 3.1 ± 0.05. As to `CC[C@H]1OC(=O)[C@H](C)[C@@H](O[C@H]2C[C@@](C)(OC)[C@@H](O)[C@H](C)O2)[C@H](C)[C@@H](O[C@@H]2O[C@H](C)C[C@H](N(C)C)[C@H]2O)[C@](C)(O)C[C@@H](C)C(=O)[C@H](C)[C@@H](O)[C@]1(C)O` [erythromycin, reference compound], the “emitted light after 16 h of growth” value in series [1] (erythromycin 3.5 μM, largest value of 10 replicates) is less than 800 RLU. For `c1ccc(P(c2ccccc2)c2nc3ccccc3n2Cc2ccc([B-](c3ccccc3)(c3ccccc3)c3ccccc3)cc2)cc1` [Compound 21], in series [1] (Neisseria meningitidis), the MIC stood at 0.78 µM.

The compound “Sodium bis(4-methylphenyl)diphenylborate [Compound 13]” had an MIC in series [1] (setting [4]) of 5 µM. Further, the lipophilicity (Log P) in series [2] turned out to be 2.0±0.1. As for `F[B-](F)(F)c1ccccc1.[K+]` [Compound 2, Potassium trifluoro(phenyl)borate, reference compound], the MIC in series [1] (setting [4]) is greater than 250 µM. `Oc1ccc2ccccc2c1/C=N/c1ccc([B-](c2ccccc2)(c2ccccc2)c2ccccc2)cc1` [Compound 19, sodium {4-[(E)-[(2-hydroxynaphthalen-1-yl)methylidene]amino]phenyl}triphenylborate] displayed an MIC in series [1] (Neisseria meningitidis) of 2.35 µM. The compound `CCCCCCCC[B-](c1ccccc1)(c1ccccc1)c1ccccc1` [Compound 11, Sodium octyltriphenylborate] returned a minimum inhibitory concentration (MIC) in series [1] (Neisseria meningitidis) of 1 µM. The lipophilicity (logP) in series [2] was found to be 4.1 ± 0.3. Regarding `F[B-](F)(F)F` [BF4, reference compound], the “survival of N. gonorrhoeae” value in series [3] was “does not exhibit anti-bacterial activity”. Also, the “survival of N. meningitidis” value with N. meningitidis was “does not exhibit anti-bacterial activity”. Moreover, in series [2], the “Log P” value was “about −1.6”.

One may read the MIC as the lowest concentration found to suppress growth. High values mean a less susceptible organism, low ones a more susceptible organism. Usually Log P stands for the decadic logarithm of the partition coefficient of the neutral form, usually between octanol and water. As usually defined, the logP is the decadic logarithm of the partition coefficient of the neutral form, usually between octanol and water. Read a high logP as higher lipophilicity.

The values are drawn from patent US12421264B2 (INSTITUT NATIONAL DE LA RECHERCHE SCIENTIFIQUE, priority 2018, dated 2025).
